Test results reported in paper PMC12172450, “Moonlighting activity of threonine synthase in cyanobacterial cell death” (mSystems, 2025).

Assays:
[1] = biological target: T1, ThrC (threonine synthase; ThrC-His6) (Microcystis aeruginosa, UniProt A0AB33BYK2); assay: in vitro threonine deaminase assay, inhibition; format: biochemical; conditions: threonine as substrate; concentration-dependent inhibition
T1 construct: gene BH695_2536; full-length thrC (1,304 bp), N-terminal His6 tag from pET-28b(+), E. coli BL21(DE3), Ni-NTA purified; tag cleavage not mentioned
T1 sequence (A0AB33BYK2 entry or part of it): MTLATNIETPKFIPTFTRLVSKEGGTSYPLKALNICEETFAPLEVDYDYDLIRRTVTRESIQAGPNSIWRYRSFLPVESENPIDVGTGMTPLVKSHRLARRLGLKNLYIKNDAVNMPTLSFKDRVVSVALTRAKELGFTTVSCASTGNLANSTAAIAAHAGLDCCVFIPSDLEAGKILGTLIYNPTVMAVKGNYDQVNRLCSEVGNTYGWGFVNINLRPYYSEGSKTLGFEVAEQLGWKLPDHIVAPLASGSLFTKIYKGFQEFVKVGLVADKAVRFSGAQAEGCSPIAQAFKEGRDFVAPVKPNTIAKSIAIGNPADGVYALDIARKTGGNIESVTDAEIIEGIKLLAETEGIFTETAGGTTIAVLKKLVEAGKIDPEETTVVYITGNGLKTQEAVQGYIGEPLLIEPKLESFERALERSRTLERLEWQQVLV

[2] = biological target: T1, ThrC (threonine synthase; ThrC-His6); assay: alpha-ketobutyrate formation (semicarbazide / […],4-DNPH), threonine deaminase activity, sigmoidal fit; format: biochemical; conditions: 50 mM PIPES pH 8.0, 100 mM KCl, 0.1 mM EDTA, 1 mM DTT, PLP, 25 °C; sigmoidal kinetics
[3] = biological target: T1, ThrC (threonine synthase; ThrC-His6); assay: yellow colour of purified enzyme; PLP-dependent threonine deamination spectra; format: binding; conditions: threonine as substrate; 50 mM PIPES pH 8.0

SMILES | inhibition [1] | other results
CC[C@H](C)[C@H](N)C(=O)O [isoleucine] | alanine and isoleucine, also exhibited concentration-dependent inhibitory activity against aKB-generating deaminases | –
C[C@@H](O)[C@H](N)C(=O)O [threonine] | – | K0.5 [2]: The sigmoidal kinetics of ThrC as a threonine deaminase were analyzed in the presence of threonine
C[C@H](N)C(=O)O [alanine] | alanine and isoleucine, also exhibited concentration-dependent inhibitory activity against aKB-generating deaminases | –
Cc1ncc(COP(=O)(O)O)c(C=O)c1O [PLP] | – | yellow colour of purified enzyme; PLP-dependent threonine deamination spectra [3]: threonine synthase could utilize PLP as a catalyst to degrade threonine into keto acids
